System: cancer cells
Experiment: MTT cytotoxic assay of esterification products (Cytotoxicity activity)
Assay type: cell-based, human
Procedure, shortened: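 Cytotoxicity was read by MTT (Carmichael method, modified), with cells seeded 24 h ahead of treatment. Sixteen human cancer lines spanning bone, lung, bladder, ovary, colon, pancreas, prostate, skin, mouth, kidney, breast, liver, brain, leukemia and cervix were used. Test samples were acyl chloride esterification products of triterpenes, as mixtures or HPLC-purified compounds.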

[1] = E4A esterified with 2-propenoyl chloride (Ppe = Propenoyl), compounds isolated with HPLC
[2] = E4A esterified with Propionyl chloride (Ppi = Propionyl), compounds isolated with HPLC
[3] = E4A esterified with benzoyl chloride (Ben = benzoyl), compounds isolated with HPLC
[4] = esterification products of core compound E4A with (2E)-2-pentenoyl chloride (2pe = 2-pentenoyl)
[5] = esterification products of core compound E4A with Butyryl chloride (But = Butyryl)
[6] = esterification products of core compound E4A with Decanoyl chloride (Dec = Decanoyl)
[7] = esterification products of core compound E4A with Isobutyryl chloride (Iso = Isobutyryl)
[8] = esterification products of core compound E4A with Myristoyl chloride (Myr = Myristoyl)
[9] = esterification products of core compound E4A with Octanoyl chloride (Oct = Octanoyl)
[10] = esterification products isolated with HPLC, graded strong / moderate / weak

| Compound | Cytotoxicity activity [10] | further results |
| --- | --- | --- |
| CC1(C)CC2C3=CCC4C5(C)CCC(OC(=O)c6ccccc6)C(C)(COC(=O)c6ccccc6)C5CCC4(C)C3(C)CC(O)C2(CO)C(O)C1O (stereo not shown) [Compound K31] | – | Cytotoxicity activity [1]: moderate; Cytotoxicity activity [2]: moderate; Cytotoxicity activity [3]: moderate; Cytotoxicity activity [4]: moderate; Cytotoxicity activity [5]: moderate; Cytotoxicity activity [6]: moderate; Cytotoxicity activity [7]: moderate; Cytotoxicity activity [8]: moderate; Cytotoxicity activity [9]: moderate |
| CC1(C)CC2C3=CCC4C5(C)CCC(O)C(C)(COC(=O)c6ccccc6)C5CCC4(C)C3(C)CC(OC(=O)c3ccccc3)C2(CO)C(O)C1O (stereo not shown) [Compound K32] | – | Cytotoxicity activity [1]: moderate; Cytotoxicity activity [2]: moderate; Cytotoxicity activity [3]: moderate; Cytotoxicity activity [4]: moderate; Cytotoxicity activity [5]: moderate; Cytotoxicity activity [6]: moderate; Cytotoxicity activity [7]: moderate; Cytotoxicity activity [8]: moderate; Cytotoxicity activity [9]: moderate |
| C/C=C(\C)C(=O)OC[C@]1(C)C2CC[C@]3(C)C(CC=C4C5CC(C)(C)[C@@H](O)[C@H](O)[C@]5(COC(=O)C=C(C)C)[C@H](O)C[C@]43C)[C@@]2(C)CC[C@@H]1O (stereo partly drawn) [E4A-Tig-Sen-1] | – | Cytotoxicity activity (esterification products of E4A—Tig—N with senecioyl chloride): strong |
| CC=C(C)C(=O)OCC1(C)C(O)CCC2(C)C1CCC1(C)C2CC=C2C3CC(C)(C)C(O)C(O)C3(COC(C)=O)C(O)CC21C (stereo not shown) [Tig—Acy—1] | strong | – |
| CC=C(C)C(=O)OCC1(C)C(O)CCC2(C)C1CCC1(C)C2CC=C2C3CC(C)(C)C(OC(C)=O)C(O)C3(COC(C)=O)C(O)CC21C (stereo not shown) [Tig—Acy—2] | moderate | – |
| CC=C(C)C(=O)OCC1(C)C(O)CCC2(C)C1CCC1(C)C2CC=C2C3CC(C)(C)C(O)C(OC(C)=O)C3(COC(C)=O)C(O)CC21C (stereo not shown) [Tig—Acy—3] | moderate | – |
| CC=C(C)C(=O)OCC1(C)C(OC(C)=O)CCC2(C)C1CCC1(C)C2CC=C2C3CC(C)(C)C(O)C(O)C3(COC(C)=O)C(O)CC21C (stereo not shown) [Tig—Acy—4] | moderate | – |
| CC=C(C)C(=O)OCC1(C)C(O)CCC2(C)C1CCC1(C)C2CC=C2C3CC(C)(C)C(OC(C)=O)C(O)C3(CO)C(O)CC21C (stereo not shown) [Tig—Acy—5] | moderate | – |
| CC=C(C)C(=O)OCC1(C)C(O)CCC2(C)C1CCC1(C)C2CC=C2C3CC(C)(C)C(O)C(OC(C)=O)C3(CO)C(O)CC21C (stereo not shown) [Tig—Acy—6] | moderate | – |
| CC=C(C)C(=O)OCC1(C)C(O)CCC2(C)C1CCC1(C)C2CC=C2C3CC(C)(C)C(O)C(O)C3(COC(=O)C(C)=CC)C(O)CC21C (stereo not shown) [Tig—Ang—1] | strong | – |
| CC=C(C)C(=O)OCC1(C)C(O)CCC2(C)C1CCC1(C)C2CC=C2C3CC(C)(C)C(OC(=O)C(C)=CC)C(O)C3(COC(=O)C(C)=CC)C(O)CC21C (stereo not shown) [Tig—Ang—2] | moderate | – |
| CC=C(C)C(=O)OCC1(C)C(O)CCC2(C)C1CCC1(C)C2CC=C2C3CC(C)(C)C(O)C(OC(=O)C(C)=CC)C3(COC(=O)C(C)=CC)C(O)CC21C (stereo not shown) [Tig—Ang—3] | moderate | – |
| CC=C(C)C(=O)OCC1(C)C(OC(=O)C(C)=CC)CCC2(C)C1CCC1(C)C2CC=C2C3CC(C)(C)C(O)C(O)C3(COC(=O)C(C)=CC)C(O)CC21C (stereo not shown) [Tig—Ang—4] | moderate | – |
| CC=C(C)C(=O)OCC1(C)C(O)CCC2(C)C1CCC1(C)C2CC=C2C3CC(C)(C)C(OC(=O)C(C)=CC)C(O)C3(CO)C(O)CC21C (stereo not shown) [Tig—Ang—5] | moderate | – |
| CC=C(C)C(=O)OCC1(C)C(O)CCC2(C)C1CCC1(C)C2CC=C2C3CC(C)(C)C(O)C(OC(=O)C(C)=CC)C3(CO)C(O)CC21C (stereo not shown) [Tig—Ang—6] | moderate | – |
| CC=C(C)C(=O)OCC1(C)C(O)CCC2(C)C1CCC1(C)C2CC=C2C3CC(C)(C)C(O)C(O)C3(COC(=O)C=Cc3ccccc3)C(O)CC21C (stereo not shown) [Tig—Cin—1] | strong | – |
| CC=C(C)C(=O)OCC1(C)C(O)CCC2(C)C1CCC1(C)C2CC=C2C3CC(C)(C)C(OC(=O)C=Cc4ccccc4)C(O)C3(COC(=O)C=Cc3ccccc3)C(O)CC21C (stereo not shown) [Tig—Cin—2] | moderate | – |

| Compound | Cytotoxicity activity [10] | further results |
| --- | --- | --- |
| CC=C(C)C(=O)OCC1(C)C(O)CCC2(C)C1CCC1(C)C2CC=C2C3CC(C)(C)C(O)C(OC(=O)C=Cc4ccccc4)C3(COC(=O)C=Cc3ccccc3)C(O)CC21C (stereo not shown) [Tig—Cin—3] | moderate | – |
| CC=C(C)C(=O)OCC1(C)C(OC(=O)C=Cc2ccccc2)CCC2(C)C1CCC1(C)C2CC=C2C3CC(C)(C)C(O)C(O)C3(COC(=O)C=Cc3ccccc3)C(O)CC21C (stereo not shown) [Tig—Cin—4] | moderate | – |
| CC=C(C)C(=O)OCC1(C)C(O)CCC2(C)C1CCC1(C)C2CC=C2C3CC(C)(C)C(OC(=O)C=Cc4ccccc4)C(O)C3(CO)C(O)CC21C (stereo not shown) [Tig—Cin—5] | moderate | – |
| CC=C(C)C(=O)OCC1(C)C(O)CCC2(C)C1CCC1(C)C2CC=C2C3CC(C)(C)C(O)C(OC(=O)C=Cc4ccccc4)C3(CO)C(O)CC21C (stereo not shown) [Tig—Cin—6] | moderate | – |
| CC=CC(=O)OCC12C(O)CC3(C)C(=CCC4C5(C)CCC(O)C(C)(COC(=O)C(C)=CC)C5CCC43C)C1CC(C)(C)C(O)C2O (stereo not shown) [Tig—Cro—1] | strong | – |
| CC=CC(=O)OCC12C(O)CC3(C)C(=CCC4C5(C)CCC(O)C(C)(COC(=O)C(C)=CC)C5CCC43C)C1CC(C)(C)C(OC(=O)C=CC)C2O (stereo not shown) [Tig—Cro—2] | moderate | – |
| CC=CC(=O)OCC12C(O)CC3(C)C(=CCC4C5(C)CCC(O)C(C)(COC(=O)C(C)=CC)C5CCC43C)C1CC(C)(C)C(O)C2OC(=O)C=CC (stereo not shown) [Tig—Cro—3] | moderate | – |
| CC=CC(=O)OCC12C(O)CC3(C)C(=CCC4C5(C)CCC(OC(=O)C=CC)C(C)(COC(=O)C(C)=CC)C5CCC43C)C1CC(C)(C)C(O)C2O (stereo not shown) [Tig—Cro—4] | moderate | – |
| CC=CC(=O)OC1C(O)C2(CO)C(O)CC3(C)C(=CCC4C5(C)CCC(O)C(C)(COC(=O)C(C)=CC)C5CCC43C)C2CC1(C)C (stereo not shown) [Tig—Cro—5] | moderate | – |
| CC=CC(=O)OC1C(O)C(C)(C)CC2C3=CCC4C5(C)CCC(O)C(C)(COC(=O)C(C)=CC)C5CCC4(C)C3(C)CC(O)C21CO (stereo not shown) [Tig—Cro—6] | moderate | – |
| CC=C(C)C(=O)OCC1(C)C(O)CCC2(C)C1CCC1(C)C2CC=C2C3CC(C)(C)C(O)C(O)C3(COC(=O)C(CC)CC)C(O)CC21C (stereo not shown) [Tig—Eth—1] | strong | – |
| CC=C(C)C(=O)OCC1(C)C(O)CCC2(C)C1CCC1(C)C2CC=C2C3CC(C)(C)C(OC(=O)C(CC)CC)C(O)C3(COC(=O)C(CC)CC)C(O)CC21C (stereo not shown) [Tig—Eth—2] | moderate | – |
| CC=C(C)C(=O)OCC1(C)C(O)CCC2(C)C1CCC1(C)C2CC=C2C3CC(C)(C)C(O)C(OC(=O)C(CC)CC)C3(COC(=O)C(CC)CC)C(O)CC21C (stereo not shown) [Tig—Eth—3] | moderate | – |
| CC=C(C)C(=O)OCC1(C)C(O)CCC2(C)C1CCC1(C)C2CC=C2C3CC(C)(C)C(OC(=O)C(CC)CC)C(O)C3(CO)C(O)CC21C (stereo not shown) [Tig—Eth—5] | moderate | – |
| CC=C(C)C(=O)OCC1(C)C(O)CCC2(C)C1CCC1(C)C2CC=C2C3CC(C)(C)C(O)C(OC(=O)C(CC)CC)C3(CO)C(O)CC21C (stereo not shown) [Tig—Eth—6] | moderate | – |
| CC=C(C)C(=O)OCC1(C)C(O)CCC2(C)C1CCC1(C)C2CC=C2C3CC(C)(C)C(O)C(O)C3(COC(=O)CCCCC)C(O)CC21C (stereo not shown) [Tig—Hex—1] | strong | – |

Reference: patent publication US20230340012A1, “NATURAL AND SYNTHETIC COMPOUNDS FOR TREATING CANCER AND OTHER DISEASES” (PACIFIC ARROW LIMITED, priority 2009, published 2023)
